# Reference: ChEMBL document CHEMBL4011614 (J Med Chem, 2017)
# Activity calls are given as the source filed them. The rule behind the calls is not given here.
# Assays:
# [1] = biological target: CREB-binding protein (Homo sapiens, UniProt Q92793); assay: Inhibition of CREBBP (unknown origin) by FRET assay
# [2] = biological target: T1, Bromodomain-containing protein 4 (Homo sapiens, UniProt O60885); assay: Inhibition of BRD4 (unknown origin) by fluorescence polarization assay
# [3] = organism: Homo sapiens; assay: Selectivity ratio of IC50 for BRD4 (unknown origin) to IC50 for CREBBP (unknown origin)
# [4] = biological target: T1, Bromodomain-containing protein 4; assay: Inhibition of human BRD4 by fluorescence polarization assay
# [5] = Passive permeability of the compound at 2 uM by cell-based assay; assay type: physicochemical; settings: not told; read-out: permeability
# [6] = Lipophilicity, log D of the compound at pH 7.4 by shake flask method; assay type: physicochemical; settings: buffer
# [7] = biological target: Histone acetyltransferase p300 (Homo sapiens) (UniProt Q09472); assay: Inhibition of human EP300 (1040 to 1161 residues) expressed in bacterial expression system at 10 uM by bromoscan assay
# Chain of Histone acetyltransferase p300 (Homo sapiens) (Q09472 whole entry, the tested form may be a part): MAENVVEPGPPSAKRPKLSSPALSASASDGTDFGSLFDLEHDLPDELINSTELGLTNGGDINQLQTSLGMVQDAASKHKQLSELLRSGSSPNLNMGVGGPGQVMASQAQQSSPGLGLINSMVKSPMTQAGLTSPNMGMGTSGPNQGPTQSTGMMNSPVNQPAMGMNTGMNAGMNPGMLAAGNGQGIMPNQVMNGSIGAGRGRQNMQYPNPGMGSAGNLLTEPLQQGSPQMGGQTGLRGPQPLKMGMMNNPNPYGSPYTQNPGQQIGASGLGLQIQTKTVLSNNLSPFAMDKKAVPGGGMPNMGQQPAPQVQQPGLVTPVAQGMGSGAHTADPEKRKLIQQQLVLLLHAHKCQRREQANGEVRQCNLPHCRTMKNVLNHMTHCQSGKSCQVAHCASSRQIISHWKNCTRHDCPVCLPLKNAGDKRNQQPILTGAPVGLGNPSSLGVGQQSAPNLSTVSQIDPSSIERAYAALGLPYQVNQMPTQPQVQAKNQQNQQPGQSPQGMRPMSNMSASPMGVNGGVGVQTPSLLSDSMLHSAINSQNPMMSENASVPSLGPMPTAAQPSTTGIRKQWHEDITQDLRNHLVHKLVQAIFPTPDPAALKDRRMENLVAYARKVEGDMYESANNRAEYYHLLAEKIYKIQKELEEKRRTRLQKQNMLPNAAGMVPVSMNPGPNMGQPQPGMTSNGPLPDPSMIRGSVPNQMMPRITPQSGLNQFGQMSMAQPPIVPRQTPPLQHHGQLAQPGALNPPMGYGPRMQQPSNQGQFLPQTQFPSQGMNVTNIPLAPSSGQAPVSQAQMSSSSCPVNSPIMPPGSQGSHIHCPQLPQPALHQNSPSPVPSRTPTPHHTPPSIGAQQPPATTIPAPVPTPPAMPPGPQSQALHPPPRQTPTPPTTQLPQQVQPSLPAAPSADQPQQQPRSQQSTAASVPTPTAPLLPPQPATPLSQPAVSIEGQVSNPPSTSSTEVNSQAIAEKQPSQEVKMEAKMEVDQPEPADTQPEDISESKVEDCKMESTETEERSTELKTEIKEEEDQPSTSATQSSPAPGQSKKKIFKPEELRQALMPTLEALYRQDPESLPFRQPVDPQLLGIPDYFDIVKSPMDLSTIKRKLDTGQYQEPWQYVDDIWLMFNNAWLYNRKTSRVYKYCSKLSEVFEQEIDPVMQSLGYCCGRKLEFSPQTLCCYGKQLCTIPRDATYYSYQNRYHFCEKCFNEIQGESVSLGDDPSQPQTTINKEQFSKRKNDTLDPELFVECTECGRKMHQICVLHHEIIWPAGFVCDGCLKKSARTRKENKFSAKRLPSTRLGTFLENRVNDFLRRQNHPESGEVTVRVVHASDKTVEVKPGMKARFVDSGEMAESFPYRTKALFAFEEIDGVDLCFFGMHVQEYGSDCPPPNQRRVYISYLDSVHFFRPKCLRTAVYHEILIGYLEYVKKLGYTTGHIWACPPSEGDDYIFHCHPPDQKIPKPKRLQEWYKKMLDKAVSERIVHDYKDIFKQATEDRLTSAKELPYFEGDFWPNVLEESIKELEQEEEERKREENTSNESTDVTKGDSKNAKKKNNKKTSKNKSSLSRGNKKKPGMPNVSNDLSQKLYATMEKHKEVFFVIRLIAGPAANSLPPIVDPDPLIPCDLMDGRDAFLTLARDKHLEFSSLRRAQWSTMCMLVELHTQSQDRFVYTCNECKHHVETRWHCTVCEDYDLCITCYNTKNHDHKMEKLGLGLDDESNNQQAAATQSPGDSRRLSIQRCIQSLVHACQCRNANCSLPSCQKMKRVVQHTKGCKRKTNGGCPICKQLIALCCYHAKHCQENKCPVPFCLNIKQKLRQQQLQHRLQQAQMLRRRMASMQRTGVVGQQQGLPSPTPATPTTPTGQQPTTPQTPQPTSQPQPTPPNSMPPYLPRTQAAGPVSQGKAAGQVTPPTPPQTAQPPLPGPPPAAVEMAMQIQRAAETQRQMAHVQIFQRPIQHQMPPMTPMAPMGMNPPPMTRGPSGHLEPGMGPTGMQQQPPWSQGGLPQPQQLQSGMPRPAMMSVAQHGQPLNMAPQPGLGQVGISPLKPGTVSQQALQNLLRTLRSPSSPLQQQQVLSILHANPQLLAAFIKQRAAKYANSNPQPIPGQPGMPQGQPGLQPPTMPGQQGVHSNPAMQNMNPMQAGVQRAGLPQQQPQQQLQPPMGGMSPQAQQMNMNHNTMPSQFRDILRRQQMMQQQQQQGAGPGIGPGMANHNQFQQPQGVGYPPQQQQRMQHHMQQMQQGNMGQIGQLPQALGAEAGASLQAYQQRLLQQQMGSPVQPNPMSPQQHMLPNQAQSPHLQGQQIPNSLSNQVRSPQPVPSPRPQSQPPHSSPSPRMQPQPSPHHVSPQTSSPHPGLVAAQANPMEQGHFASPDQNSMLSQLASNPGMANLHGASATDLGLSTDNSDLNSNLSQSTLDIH
# [8] = biological target: T1, Bromodomain-containing protein 4; assay: Binding affinity to BRD4 (unknown origin) at 75 to 100 uM by isothermal titration assay
# [9] = Intrinsic clearance in human microsomes at 1 uM; assay type: ADME, Microsome
# [10] = biological target: T2, Alpha-1A adrenergic receptor (Homo sapiens, UniProt P35348); assay: Displacement of [3H]prazosin from recombinant human adrenergic A1a receptor after 60 mins by scintillation counting method
# T2 sequence (P35348 whole entry): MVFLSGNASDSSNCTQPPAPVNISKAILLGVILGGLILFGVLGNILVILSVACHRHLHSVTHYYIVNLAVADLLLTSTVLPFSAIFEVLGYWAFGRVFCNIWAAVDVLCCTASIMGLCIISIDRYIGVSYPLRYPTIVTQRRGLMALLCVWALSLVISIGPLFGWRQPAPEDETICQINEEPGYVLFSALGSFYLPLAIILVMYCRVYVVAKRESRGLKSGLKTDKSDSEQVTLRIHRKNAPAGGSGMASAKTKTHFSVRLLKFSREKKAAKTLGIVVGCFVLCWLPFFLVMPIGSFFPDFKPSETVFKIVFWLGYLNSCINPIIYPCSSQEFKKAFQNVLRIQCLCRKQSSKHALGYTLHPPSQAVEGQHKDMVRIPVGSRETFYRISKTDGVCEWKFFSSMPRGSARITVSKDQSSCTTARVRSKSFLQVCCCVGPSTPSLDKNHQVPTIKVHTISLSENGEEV
# [11] = biological target: Voltage-gated L-type calcium channel (Homo sapiens, UniProt Q13936+Q13698+Q01668+O60840); assay: Inhibition of L-type calcium channel (unknown origin)
# Chain of CREB-binding protein (Q92793 whole entry): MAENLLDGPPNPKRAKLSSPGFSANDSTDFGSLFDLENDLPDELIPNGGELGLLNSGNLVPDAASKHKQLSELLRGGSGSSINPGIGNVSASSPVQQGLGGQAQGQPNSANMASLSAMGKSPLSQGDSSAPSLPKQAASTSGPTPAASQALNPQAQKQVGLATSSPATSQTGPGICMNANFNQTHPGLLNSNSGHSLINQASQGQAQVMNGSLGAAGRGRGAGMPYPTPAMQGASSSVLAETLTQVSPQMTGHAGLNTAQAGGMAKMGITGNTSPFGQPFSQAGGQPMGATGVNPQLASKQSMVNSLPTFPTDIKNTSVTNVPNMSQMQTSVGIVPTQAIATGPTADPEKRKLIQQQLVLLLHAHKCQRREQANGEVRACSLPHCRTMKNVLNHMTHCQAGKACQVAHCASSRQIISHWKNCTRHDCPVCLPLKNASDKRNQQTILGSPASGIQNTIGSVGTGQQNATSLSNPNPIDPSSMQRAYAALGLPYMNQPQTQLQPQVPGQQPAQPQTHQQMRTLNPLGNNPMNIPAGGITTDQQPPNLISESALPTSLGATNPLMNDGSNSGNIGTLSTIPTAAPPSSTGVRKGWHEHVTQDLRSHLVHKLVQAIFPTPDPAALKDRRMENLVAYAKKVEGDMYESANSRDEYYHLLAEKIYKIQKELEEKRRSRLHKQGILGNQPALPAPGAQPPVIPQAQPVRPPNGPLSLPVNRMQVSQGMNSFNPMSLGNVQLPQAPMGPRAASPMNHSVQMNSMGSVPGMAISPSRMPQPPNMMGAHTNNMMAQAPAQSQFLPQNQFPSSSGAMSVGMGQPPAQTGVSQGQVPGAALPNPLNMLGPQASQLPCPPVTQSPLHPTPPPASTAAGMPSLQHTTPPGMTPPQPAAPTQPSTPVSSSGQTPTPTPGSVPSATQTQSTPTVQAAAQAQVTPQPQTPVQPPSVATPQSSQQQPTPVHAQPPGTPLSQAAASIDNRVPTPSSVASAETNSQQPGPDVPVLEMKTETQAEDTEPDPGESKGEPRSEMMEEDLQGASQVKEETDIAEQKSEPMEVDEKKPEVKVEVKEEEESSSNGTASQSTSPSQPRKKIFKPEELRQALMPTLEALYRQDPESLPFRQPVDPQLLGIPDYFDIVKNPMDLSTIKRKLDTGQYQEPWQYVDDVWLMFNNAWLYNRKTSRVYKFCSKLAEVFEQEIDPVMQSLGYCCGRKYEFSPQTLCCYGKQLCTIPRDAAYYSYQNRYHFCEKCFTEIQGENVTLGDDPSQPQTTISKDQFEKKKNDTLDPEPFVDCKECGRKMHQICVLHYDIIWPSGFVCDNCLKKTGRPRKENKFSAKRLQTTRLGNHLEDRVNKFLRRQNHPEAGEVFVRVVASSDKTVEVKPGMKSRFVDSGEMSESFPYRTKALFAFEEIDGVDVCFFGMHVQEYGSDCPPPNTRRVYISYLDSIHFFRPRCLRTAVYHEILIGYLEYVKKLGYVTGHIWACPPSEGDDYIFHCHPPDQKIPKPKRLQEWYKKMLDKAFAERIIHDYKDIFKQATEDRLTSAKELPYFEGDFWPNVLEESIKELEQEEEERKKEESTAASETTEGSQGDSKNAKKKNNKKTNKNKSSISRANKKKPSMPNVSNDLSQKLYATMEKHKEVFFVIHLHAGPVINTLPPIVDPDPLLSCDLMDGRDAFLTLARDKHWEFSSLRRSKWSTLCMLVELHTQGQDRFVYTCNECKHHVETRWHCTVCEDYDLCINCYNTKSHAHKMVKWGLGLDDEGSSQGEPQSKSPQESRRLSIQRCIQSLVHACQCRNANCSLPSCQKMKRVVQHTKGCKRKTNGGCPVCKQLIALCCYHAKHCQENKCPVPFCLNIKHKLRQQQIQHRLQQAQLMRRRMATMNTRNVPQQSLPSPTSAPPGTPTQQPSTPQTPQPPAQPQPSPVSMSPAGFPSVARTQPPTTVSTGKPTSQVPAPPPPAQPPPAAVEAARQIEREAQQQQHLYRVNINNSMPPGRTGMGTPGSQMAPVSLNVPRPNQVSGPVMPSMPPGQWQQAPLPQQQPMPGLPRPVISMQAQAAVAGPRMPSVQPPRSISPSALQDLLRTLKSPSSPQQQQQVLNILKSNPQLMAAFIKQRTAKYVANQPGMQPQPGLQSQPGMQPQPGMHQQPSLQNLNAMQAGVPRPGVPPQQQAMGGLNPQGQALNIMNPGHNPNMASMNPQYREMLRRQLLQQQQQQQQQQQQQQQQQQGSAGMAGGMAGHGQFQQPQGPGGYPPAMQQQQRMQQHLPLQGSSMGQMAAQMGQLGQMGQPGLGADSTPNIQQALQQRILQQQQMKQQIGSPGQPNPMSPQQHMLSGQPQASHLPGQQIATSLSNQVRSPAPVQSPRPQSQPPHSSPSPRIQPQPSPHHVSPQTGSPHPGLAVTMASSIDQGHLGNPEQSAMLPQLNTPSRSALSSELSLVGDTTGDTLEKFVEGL
Structure (SMILES),IC50 [1] [µM],IC50 [2] [µM],Ratio IC50 [3],also measured
CCCCCOc1ccc(CCc2nc3cc(-c4c(C)noc4C)ccc3n2CCN2CCOCC2)cc1,0.69,6.9,10,
COc1ccc(CCc2cc3cc(-c4c(C)noc4C)ccc3n2CCN2CCOCC2)cc1,1.5,> 120,,
COc1ccc(OCc2nc3cc(-c4c(C)noc4C)ccc3n2CCN2CCOCC2)cc1,0.92,9.2,10,
Cc1noc(C)c1-c1ccc2c(c1)nc(CCc1cncc3ccccc13)n2CCN1CCOCC1,2.5,16.8,7,
COc1ccc(CCc2nc3cc(-c4c(C)noc4C)ccc3n2CCN2CCOCC2)c(OC)c1,0.24,8.3,35,
"Cc1noc(C)c1-c1ccc2c(c1)nc1n2[C@H](CN2CCOCC2)CC1Cc1ccccc1 (single isomer, unassigned; 31) [listing 1 of 2 here]",,,4,
"Cc1noc(C)c1-c1ccc2c(c1)nc1n2[C@H](CN2CCOCC2)CC1Cc1ccccc1 (single isomer, unassigned; 32) [listing 1 of 2 here]",1.3,> 80,,
CCCCOc1ccc(CCc2nc3cc(-c4c(C)noc4C)ccc3n2CCN2CCOCC2)cc1,0.26,11.2,43,
COc1ccc([C@H]2OCC[C@@H]2c2nc3cc(-c4c(C)noc4C)ccc3n2CCN2CCOCC2)cc1,0.14,9.4,67,
Cc1noc(C)c1-c1ccc2c(c1)nc(CCc1ccccc1)n2CC(=O)N1CCOCC1,0.36,13.2,37,
Cc1noc(C)c1-c1ccc2c(c1)nc(CCc1c[nH]c3ccccc13)n2CCN1CCOCC1,0.74,10.1,14,
Cc1n[nH]c(C)c1-c1ccc2c(c1)nc(CCc1ccccc1)n2CCN1CCOCC1,2.4,> 10,,
COc1ccc(CCc2nc3cc(-c4c(C)noc4C)ccc3n2CCN2CCOCC2)cc1OC,0.47,9.4,20,
Cc1noc(C)c1-c1ccc2c(c1)nc(CCc1ccc(OC(F)(F)F)cc1)n2CCN1CCOCC1,,18.5,,
COc1ccccc1CCc1nc2cc(-c3c(C)noc3C)ccc2n1CCN1CCOCC1,0.98,13.9,14,
COc1ccc(CCc2nc3cc(-c4c(C)noc4C)ccc3n2C[C@H](C)N2CCOCC2)cc1Cl,,,,IC50 [4]: 5.85 µM
COc1ccc(CCc2c(C#N)c3cc(-c4c(C)noc4C)ccc3n2CCN2CCOCC2)cc1,0.5,> 120,> 240,
COc1cc(-c2ccc3c(c2)nc(CCc2ccccc2)n3CCN2CCOCC2)cccc1=O,0.21,0.35,,
Cc1nc(C)n(-c2ccc3c(c2)nc(CCc2ccccc2)n3CCN2CCOCC2)n1,> 30,> 120,,
COc1ccc(CCc2cc3nc(-c4c(C)noc4C)ccc3n2CCN2CCOCC2)cc1,0.17,18.4,> 100,Papp at 2 µM [5]: 6.8 ×10⁻⁶ cm/s; logD [6]: 3.29; inhibition [7]: Active
"Cc1noc(C)c1-c1ccc2c(c1)nc1n2[C@H](CN2CCOCC2)CC1Cc1ccccc1 (single isomer, unassigned; 32) [listing 2 of 2 here]",,,> 62,
Cc1noc(C)c1-c1ccc2c(c1)nc(COc1ccccc1)n2CCN1CCOCC1,0.4,14.4,36,
CCCOc1ccc(CCc2nc3cc(-c4c(C)noc4C)ccc3n2CCN2CCOCC2)cc1,,,62,Activity [8]: inactive; Papp at 2 µM [5]: 7.9 ×10⁻⁶ cm/s; microsomal CLint at 1 µM [9]: > 300 µL/min/mg; IC50 [10]: 0.62 µM; IC50 [11]: 3 µM; inhibition [7]: Active

# The next lines start with results.
IC50 [1] [µM],IC50 [2] [µM],Ratio IC50 [3],Structure (SMILES),also measured
0.09,3.4,38,Cc1noc(C)c1-c1ccc2c(c1)nc(CCc1ccc(N)cc1)n2CCN1CCOCC1,
0.31,4.6,15,COc1cccc(CCc2nc3cc(-c4c(C)noc4C)ccc3n2CCN2CCOCC2)c1,
0.16,4.9,31,Cc1noc(C)c1-c1ccc2c(c1)nc(CCc1ccc3ccccc3n1)n2CCN1CCOCC1,
0.2,1.4,7,CC(=O)Nc1ccc(CCc2nc3cc(-c4c(C)noc4C)ccc3n2CCN2CCOCC2)cc1,
0.5,3.9,,CCn1cc(-c2ccc3c(c2)nc(CCc2ccccc2)n3CCN2CCOCC2)ccc1=O,
0.3,4.9,16,Cc1noc(C)c1-c1ccc2c(c1)nc(CCc1ccc(C#N)cc1)n2CCN1CCOCC1,
0.2,4.5,23,Cc1noc(C)c1-c1ccc2c(c1)nc(CCc1ccc(OC(C)C)cc1)n2CCN1CCOCC1,
0.4,4.1,10,Cc1noc(C)c1-c1ccc2c(c1)nc(CCc1ccncc1)n2CCN1CCOCC1,
0.33,3.2,10,Cc1noc(C)c1-c1ccc2c(c1)nc(CCc1ccccn1)n2CCN1CCOCC1,
0.45,2,,"Cc1noc(C)c1-c1ccc2c(c1)nc1n2[C@H](CN2CCOCC2)CC1Cc1ccccc1 (single isomer, unassigned; 31) [listing 2 of 2 here]",
0.13,1.6,12,Cc1noc(C)c1-c1ccc2c(c1)nc(-c1cnn3c1CCC3)n2CCN1CCOCC1,
0.076,0.49,6,Cc1noc(C)c1-c1ccc2c(c1)nc([C@@H]1CCO[C@H]1c1ccccc1)n2CCN1CCOCC1,
0.78,5.8,7.4,Cc1noc(C)c1-c1ccc2c(c1)nc(CCc1cccnc1)n2CCN1CCOCC1,
0.13,6.6,51,CCOc1ccc(CCc2nc3cc(-c4c(C)noc4C)ccc3n2CCN2CCOCC2)cc1,
0.24,4.1,17,Cc1noc(C)c1-c1ccc2c(c1)nc(CCc1ccccc1)n2CCN1CCOCC1,
0.21,4.3,20,Cc1noc(C)c1-c1ccc2c(c1)nc(CCc1ccc(N(C)C)cc1)n2CCN1CCOCC1,
0.31,6,,CCc1noc(C)c1-c1ccc2c(c1)nc(CCc1ccccc1)n2CCN1CCOCC1,
